In patent publication US11104677B2, “Toll-like receptor 9 antagonists” (FRAUNHOFER-GESELLSCHAFT ZUR FÖRDERUNG DER ANGEWANDTEN …, priority 2015, dated 2021) one finds IC50 data, which are given here for eight molecules.

The IC50 is the midpoint of a concentration-inhibition curve.

The target of one test is T1, TLR9 (Homo sapiens, UniProt Q9NR96).
T1 construct: expressed in transfected cells; host or cells: NIH 3T3 fibroblasts (mouse), stably transfected, NF-kB driven SEAP reporter
T1 sequence (Q9NR96 26-1032): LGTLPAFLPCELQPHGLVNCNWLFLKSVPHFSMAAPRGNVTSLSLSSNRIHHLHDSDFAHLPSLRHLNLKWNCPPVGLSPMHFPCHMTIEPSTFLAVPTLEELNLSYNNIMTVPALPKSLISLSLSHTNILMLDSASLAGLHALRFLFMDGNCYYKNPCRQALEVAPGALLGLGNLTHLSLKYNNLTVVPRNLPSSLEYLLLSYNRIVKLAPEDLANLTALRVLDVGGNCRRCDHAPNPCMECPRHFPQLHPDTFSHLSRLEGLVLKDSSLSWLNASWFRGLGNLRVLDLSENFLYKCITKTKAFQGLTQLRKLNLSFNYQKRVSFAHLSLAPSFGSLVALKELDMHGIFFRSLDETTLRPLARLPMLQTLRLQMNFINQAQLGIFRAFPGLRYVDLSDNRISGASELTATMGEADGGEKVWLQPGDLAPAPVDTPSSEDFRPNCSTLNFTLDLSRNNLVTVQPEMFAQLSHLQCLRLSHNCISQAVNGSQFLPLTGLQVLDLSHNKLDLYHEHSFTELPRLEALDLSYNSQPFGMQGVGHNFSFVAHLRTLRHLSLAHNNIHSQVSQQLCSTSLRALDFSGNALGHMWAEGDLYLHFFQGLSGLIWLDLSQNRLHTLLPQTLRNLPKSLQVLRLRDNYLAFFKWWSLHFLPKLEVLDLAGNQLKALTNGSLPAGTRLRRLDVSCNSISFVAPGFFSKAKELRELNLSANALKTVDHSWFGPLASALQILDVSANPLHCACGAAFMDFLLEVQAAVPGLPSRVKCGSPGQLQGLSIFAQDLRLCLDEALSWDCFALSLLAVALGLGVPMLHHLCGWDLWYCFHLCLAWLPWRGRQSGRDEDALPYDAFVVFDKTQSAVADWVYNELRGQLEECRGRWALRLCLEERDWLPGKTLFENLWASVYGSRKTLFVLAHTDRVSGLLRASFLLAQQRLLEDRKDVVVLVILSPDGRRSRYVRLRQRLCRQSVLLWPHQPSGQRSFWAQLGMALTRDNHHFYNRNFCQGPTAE
As to the kind of experiment: cell-based reporter assay (NIH 3T3 reporter cell line expressing TLR9, NF-kB driven SEAP, stimulated with CpG ODN 2216). The settings on record: Table 5; first 30 candidates; ODN 2216 agonist; n≥3; read-out: IC50 in. Here is the method:
In context with the present invention, the ‘IC50 value’ is the half maximum inhibitory concentration which is a measure of the effectiveness of a substance inhibiting the function of the TLR9. The IC50 value can be determined by a functional antagonist assay or a competition binding assay. Preferably, the IC50 value is determined by the cell-based reporter assay in section 3, below, of the examples.
A cell based test-system that allows PAMPs to be identified and differentiated via pattern recognition receptors (PRRs) in a reporter gene assay was used (DE 10 2006 031 483, EP 2 041 172). For this assay human PRRs and co-receptors were stably transfected and expressed in NIH 3T3 fibroblasts. This cell line expresses no other PRRs and contains a reporter gene which is activated by PRR-activation. The induction of receptor complexes by their ligands leads, after a signalling cascade, to an activation of transcription factor NF-kB, which regulates the expression of an additional integrated reporter gene, a secreted alkaline phosphatase (SEAP) (Burger-Kentischer, A.; Abele, I. S.; Finkelmeier, D.; Wiesmüller, K.-H.; Rupp, S., A new cell-based innate immune receptor assay for the examination of receptor activity, ligand specificity, signalling pathways and the detection of pyrogens. J. Immunol. Methods 2010, 358 (1), 93-103).
This test system mimics elements of the innate human immune system and can selectively recognize a large number of PAMPs with high sensitivity. Consequently, the PRR-specific cell-based high-throughput feature of the reporter cell lines will provide a fast, flexible and convenient means for lead compound screening in the pharmaceutical drug development fields. For the in vitro screening of the top candidates identified at IDR, the Fraunhofer IGB used this cell-based reporter system to identify TLR9 antagonists in order to determine their activity as well their biocompatibility. Within a first step the NIH3T3 cell line expressing TLR9 was used to measure the inhibitory effect of the TLR9 antagonists.
For the experiment the reporter cell line expressing TL9 was plated in 96-well cell culture plates at a density of 0.3×10^5 cells in DMEM media supplemented with 10% FCS (Invitrogen), 1% L-glutamine (200 mM Invitrogen) and 1% Penicillin-Streptomycin (PenStrep: 100×, Invitrogen). The cells were incubated for 16 h to grow adherent monolayers at 37° C. in a 5% saturated CO2 humidified atmosphere. After overnight incubation, the media was removed and replaced by DMEM medium supplemented with 1% PenStrep, 1% L-glutamine and 0.5% FCS. The media change is important to avoid a unspecific background signal, caused by active remaining phosphatases present in the FCS. The cells are then stimulated with a specific ligand non-methylated CpG ODN 2216 agonist (Invivogen) and the potential antagonists using different concentrations, namely within a range of concentrations of the potential antagonists starting with 0.025 μM (for the antagonist with the highest activity) up to 14 mM for the antagonists with lowest activities.
The ODN ligand has the sequence 5′-ggGGGACGA:TCGTCgggggg-3′ (SEQ ID No. 1). Those represented by capital letters are phosphodiesters, and those in small letters are phosphorothioate. The Palindrome is underlined.
The cells were again incubated in a humidified atmosphere for 16h leading to the expression or reduced expression of SEAP and its secretion into the media. Binding of the antagonist leads to a block of the TLR9, resulting in no or in a reduced expression of the reporter gene (SEAP). Therefore, 50 μl supernatant were taken from the cells and transferred into a 96-well PS microplate flat bottom (Greiner BIO-ONE). The enzyme substrate reaction was initiated by adding 50 μl of the specific substrate. SEAP catalyses the hydrolysis of pNPP to the final product para-nitrophenol (yellow), which can be detected in a photometric analysis using an UV-VIS reader at 405 nm. […]
(In general: In a reporter assay the amount or activity of a reporter protein is the signal.)
As for `c1ccc(-c2cc(-c3ccncc3)nc3ccccc23)cc1` [T6306924, n1c2c(cccc2)c(cc1-c1ccncc1)-c1ccccc1], the IC50 worked out at 870 µM.
Regarding `COc1cccc(OCCCCn2cnc3ccccc32)c1` [T6416309, O(CCCCn1c2c(nc1)cccc2)c1cc(OC)ccc1], the IC50 was 13.3 µM.
Still for that read-out and setting: as for `c1ccc(N2CCN(c3ccc4ccccc4n3)CC2)cc1` [T6495030, n1c2c(ccc1N1CCN(CC1)c1ccccc1)cccc2], the figure is 220 µM; as for `C(=C\c1ccc2ccccc2n1)/c1ccc(N2CCOCC2)cc1` [T6549007, O1CCN(CC1)c1ccc(cc1)\C═C\c1nc2c(cc1)cccc2], 4320 µM.
Turning to `COc1ccc(OCCN(C)c2ncnc3c2oc2ccccc23)cc1` [T6593995, o1c2c(ncnc2N(CCOc2ccc(OC)cc2)C)c2c1cccc2], the IC50 was found to be 905 µM.
Same read-out and setting: under `COc1ccc(/C=C/c2ccc3ccccc3n2)cc1OC` [T6895608, O(C)c1cc(ccc1OC)\C═C\c1nc2c(cc1)cccc2] stands 8.91 µM.

Still in this test, the particulars now being: in the presence of 5 μM of the ODN 2216 agonist; read-out: IC50 in.
As to `c1ccc(Cn2cc(CNCc3ccc(CN4CCOCC4)cc3)c(-c3cccnc3)n2)cc1` [T6216617], the IC50 came to 7.56 µM.
Still for that read-out and setting: under `Clc1ccc(CN2CCC(NCc3ccc(-n4ccnc4)cc3)CC2)cc1` [T6683896] stands 0.896 µM.
